From ChEMBL document CHEMBL1811878, “Heteroatom-substituted analogues of orphan nuclear receptor small heterodimer partner ligand and apoptosis inducer (E)-4-[3-(1-Adamantyl)-4-hydroxyphenyl]-3-chlorocinnamic acid” (J Med Chem, 2011) come the findings set out here.

Values after ≈ are worked out from the molar mass of the structure shown. Active and inactive are the calls of the source. The calls are words filed in the database; no cut-off is given here. Some results are limits rather than exact numbers.

A word on the solubility: it is the dissolved amount per volume that the medium holds. As usually defined, the IC50 is the concentration at which inhibition is half-maximal.

The target in series [1] is T1, Retinoic acid receptor beta (Homo sapiens) (UniProt P10826).
T1 sequence (whole entry): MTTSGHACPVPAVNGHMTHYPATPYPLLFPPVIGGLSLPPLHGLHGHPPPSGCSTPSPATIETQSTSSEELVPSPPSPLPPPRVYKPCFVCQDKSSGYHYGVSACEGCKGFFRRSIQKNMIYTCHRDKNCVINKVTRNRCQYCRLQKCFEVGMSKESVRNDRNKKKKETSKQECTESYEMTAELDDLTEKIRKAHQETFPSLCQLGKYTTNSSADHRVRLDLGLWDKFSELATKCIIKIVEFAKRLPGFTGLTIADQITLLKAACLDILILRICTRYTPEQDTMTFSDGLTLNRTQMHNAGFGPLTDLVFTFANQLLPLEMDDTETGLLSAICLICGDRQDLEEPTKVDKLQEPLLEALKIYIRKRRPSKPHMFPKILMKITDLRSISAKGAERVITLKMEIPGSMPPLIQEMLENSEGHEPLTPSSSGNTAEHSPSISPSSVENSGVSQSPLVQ
Nature of the series: Transcriptional activation of human RARbeta at 0.1 uM by luciferase reporter gene assay relative to control.

Series [2] in a line: Induction of apoptosis in retinoid-resistant p53 null human HL60R cells assessed as DNA fragmentation at 1 uM after 24 hrs by acridine orange staining method. Format: functional.
Series [3] addresses T2, Retinoic acid receptor gamma (Homo sapiens) (UniProt P13631).
T2 sequence (whole entry): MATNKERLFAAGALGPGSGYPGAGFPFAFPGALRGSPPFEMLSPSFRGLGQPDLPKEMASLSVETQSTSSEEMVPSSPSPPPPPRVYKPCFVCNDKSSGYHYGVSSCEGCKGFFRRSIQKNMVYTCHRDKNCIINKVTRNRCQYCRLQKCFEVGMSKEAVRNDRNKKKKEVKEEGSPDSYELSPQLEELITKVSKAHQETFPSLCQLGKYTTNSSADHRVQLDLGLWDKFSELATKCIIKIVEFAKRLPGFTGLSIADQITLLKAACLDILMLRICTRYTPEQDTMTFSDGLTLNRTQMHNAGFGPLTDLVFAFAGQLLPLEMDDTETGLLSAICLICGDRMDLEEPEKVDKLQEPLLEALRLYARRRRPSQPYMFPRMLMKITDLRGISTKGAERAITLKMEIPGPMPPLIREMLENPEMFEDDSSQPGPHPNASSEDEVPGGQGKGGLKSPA
The experiment in a line: Transcriptional activation of human RARgamma at 0.1 uM by luciferase reporter gene assay relative to control. In general terms: In a reporter assay the amount or activity of a reporter protein is the signal.

Series [4] in a line: Induction of apoptosis in retinoid-resistant p53 null human HL60R cells assessed as DNA fragmentation at 0.1 uM after 24 hrs by acridine orange staining method. Format: functional.
The target of series [5] is T2, Retinoic acid receptor gamma (Homo sapiens). The experiment in a line: Transcriptional activation of human RARgamma at 1 uM by (TREpal)2-tk-CAT reporter gene assay.
Series [6] deals with T1, Retinoic acid receptor beta (Homo sapiens). Nature of the series: Transcriptional activation of human RARbeta at 1 uM by (TREpal)2-tk-CAT reporter gene assay.
Series [7] addresses T3, Retinoic acid receptor alpha (Homo sapiens) (UniProt P10276).
T3 sequence (whole entry): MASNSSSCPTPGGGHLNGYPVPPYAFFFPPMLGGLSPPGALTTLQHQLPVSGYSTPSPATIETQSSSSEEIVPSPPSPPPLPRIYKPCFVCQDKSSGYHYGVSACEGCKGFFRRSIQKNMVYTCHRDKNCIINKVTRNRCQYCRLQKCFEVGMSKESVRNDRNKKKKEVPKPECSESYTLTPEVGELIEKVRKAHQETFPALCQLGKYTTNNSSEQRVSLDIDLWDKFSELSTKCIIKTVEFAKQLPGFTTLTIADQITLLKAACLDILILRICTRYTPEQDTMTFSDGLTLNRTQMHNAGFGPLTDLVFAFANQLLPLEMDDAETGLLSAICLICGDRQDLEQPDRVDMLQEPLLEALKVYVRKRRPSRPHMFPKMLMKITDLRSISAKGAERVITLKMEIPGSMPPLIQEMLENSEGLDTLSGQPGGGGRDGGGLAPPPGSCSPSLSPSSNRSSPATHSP
The experiment in a line: Transcriptional activation of human RARalpha at 1 uM by (TREpal)2-tk-CAT reporter gene assay.

In series [8] the target is T3, Retinoic acid receptor alpha (Homo sapiens). The experiment in a line: Transcriptional activation of human RARalpha at 0.1 uM by luciferase reporter gene assay relative to control.
Series [9] concerns A549. Nature of the series: Induction of apoptosis in human A549 cells assessed as decrease in ATP level after 72 hrs by luminescence assay. Format: functional, cell-based.
Series [10] relates to MDA-MB-231. The experiment in a line: Induction of apoptosis in retinoid-resistant human MDA-MB-231 cells expressing p53 and ERbeta gene assessed as DNA fragmentation at 1 uM after 24 hrs by acridine orange staining method. Format: functional.
The subject of series [11] is HT-29. Nature of the series: Induction of apoptosis in human HT-29 cells assessed as decrease in ATP level at 10 uM after 72 hrs by luminescence assay. Format: functional. Details: scale not given: the % may be the effect or the level left.
The test system of series [12] is PC-3. The experiment in a line: Induction of apoptosis in human PC3 cells assessed as decrease in ATP level at 10 uM after 72 hrs by luminescence assay. Format: functional, cell-based.
The test system of series [13] is PC-3. Nature of the series: Induction of apoptosis in human PC3 cells assessed as decrease in ATP level at 5 uM after 72 hrs by luminescence assay. More on the design: scale not given: the % may be the effect or the level left. The series is classed as functional.
The subject of series [14] is MDA-MB-231. Nature of the series: Growth inhibition of retinoid-resistant human MDA-MB-231 cells expressing p53 and ERbeta gene at 1 uM after 48 hrs by MTT assay. The series is classed as functional. The note with it: MDA-MB-231, 48 h, read-out: GI. A general note: Formazan colour is commonly taken as a measure of viable cells.
The test system of series [15] is Mus musculus. The experiment in a line: Toxicity in ICR-SCIDS mouse assessed as decrease in body weight at 20 mg/kg, iv qd administered at a 25% increment in dose each day for 7 days measured on day 8 relative to control. The series is classed as organism-based. Details: dose 20 mg/kg, route intravenous; scale not given: the % may be the effect or the level left. The note with it: in vivo, 168 h.

The test system of series [16] is A549. The experiment in a line: Induction of apoptosis in human A549 cells assessed as decrease in ATP level at 5 uM after 72 hrs by luminescence assay. The series is classed as functional. More on the design: scale not given: the % may be the effect or the level left.
Series [17] concerns KG-1. The experiment in a line: Induction of apoptosis in human KG1 cells expressing p53 gene assessed as DNA fragmentation at 1 uM after 48 hrs by acridine orange staining method. Format: functional.
The test system of series [18] is MDA-MB-231. The experiment in a line: Growth inhibition of retinoid-resistant human MDA-MB-231 cells expressing p53 and ERbeta gene at 1 uM after 24 hrs by MTT assay. The note with it: MDA-MB-231, 24 h, read-out: GI. Format: functional.
For series [19], the system named is KG-1. The experiment in a line: Growth inhibition in human KG1 cells expressing p53 gene at 1 uM after 48 hrs by MTT assay. The series is classed as functional. To be noted: KG-1, 48 h, read-out: GI.
Series [20] can be described thus: Aqueous solubility of the compound in water at pH 5 by UV spectrophotometric analysis. The series is classed as physicochemical.
The nature of series [21]: Aqueous solubility of the compound in PBS at pH 7.2 by UV spectrophotometric analysis. The series is classed as physicochemical. The note with it: buffer.
For series [22], the system named is HT-29. Nature of the series: Induction of apoptosis in human HT-29 cells assessed as decrease in ATP level at 10 uM after 72 hrs by luminescence assay relative to control. Format: functional. Details: scale not given: the % may be the effect or the level left.
The subject of series [23] is MDA-MB-231. Nature of the series: Induction of apoptosis in retinoid-resistant human MDA-MB-231 cells expressing p53 and ERbeta gene assessed as DNA fragmentation at 1 uM after 48 hrs by acridine orange staining method. The series is classed as functional.
In series [24] the test system is A549. The experiment in a line: Induction of apoptosis in human A549 cells assessed as decrease in ATP level at 10 uM after 72 hrs by luminescence assay. The series is classed as functional, cell-based.
For series [25], the system named is Mus musculus. Nature of the series: Toxicity in ICR-SCIDS mouse assessed as increase in body weight at 20 mg/kg, iv qd administered at a 25% increment in dose each day for 7 days measured on day 4. Format: organism-based. More on the design: dose 20 mg/kg, route intravenous. The note with it: in vivo, 168 h.
Series [26] concerns KG-1. The experiment in a line: Growth inhibition in human KG1 cells expressing p53 gene at 5 uM after 48 hrs by MTT assay. The series is classed as functional. To be noted: KG-1, 48 h, read-out: GI.
Series [27] relates to Mus musculus. Nature of the series: Toxicity in ICR-SCIDS mouse assessed as decrease in body weight at 20 mg/kg, iv qd administered at a 25% increment in dose each day for 7 days measured on day 7 relative to body weight on day 1. The series is classed as organism-based. Details: dose 20 mg/kg, route intravenous; scale not given: the % may be the effect or the level left. The note with it: in vivo, 168 h.

Series [28] can be described thus: Induction of apoptosis in mouse MMTV-Wnt-1 cells assessed as cell viability after 72 hrs by DAPI staining based cell counting. Format: functional.
Series [29] has as its system Mus musculus. Nature of the series: Toxicity in ICR-SCIDS mouse assessed as increase in body weight at 20 mg/kg, iv qd administered at a 25% increment in dose each day for 7 days measured on day 1. To be noted: in vivo, 168 h. Format: organism-based. More on the design: dose 20 mg/kg, route intravenous.
In series [30] the test system is MDA-MB-231. Nature of the series: Induction of apoptosis in retinoid-resistant human MDA-MB-231 cells expressing p53 and Erbeta gene assessed as DNA fragmentation at 0.1 to 1 uM after 48 hrs by acridine orange staining method. Format: functional, cell-based.
Series [31] relates to KG-1. Nature of the series: Induction of apoptosis in human KG1 cells assessed as DNA fragmentation at 5 uM after 48 hrs by acridine orange staining method. The series is classed as functional.
Series [32] concerns HT-29. The experiment in a line: Induction of apoptosis in human HT-29 cells assessed as decrease in ATP level at 5 uM after 72 hrs by luminescence assay. Format: functional. More on the design: scale not given: the % may be the effect or the level left.
Series [33] has as its system HT-29. The experiment in a line: Induction of apoptosis in human HT-29 cells assessed as decrease in ATP level after 72 hrs by luminescence assay. The series is classed as functional, cell-based.
For series [34], the system named is MDA-MB-231. The experiment in a line: Growth inhibition of retinoid-resistant human MDA-MB-231 cells expressing p53 and Erbeta gene at 0.1 to 1 uM after 48 hrs by MTT assay. Format: functional, cell-based.
Series [35] has as its system PC-3. The experiment in a line: Induction of apoptosis in human PC3 cells assessed as decrease in ATP level after 72 hrs by luminescence assay. The series is classed as functional, cell-based.

Take `O=C(O)/C=C/c1ccc(-c2ccc(O)c(C34CC5CC(CC(C5)C3)C4)c2)cc1` [ADAROTENE]: the fold change (FC) stood at 6 in [1], 25 in series [3] and 6 in [8]. The Activity was found to be 98% in [2]; 90% in [4]; 103% in series [5]; 85% in series [6]; 8% in series [7].

Take `O=C(O)/C=C/c1ccc(-c2ccc(O)c(C34CC5CC(CC(C5)C3)C4)c2)c(Cl)c1`: the Activity result is “Dose-dependent effect” in series [9]; 3% in series [10]; “>=40%” in series [11]; 30% in series [13]; 62.7% in series [15]; 30% in series [16]. For the same compound, the Activity in series [2] is 94%; in series [17] it was 30%; in series [4], 51%; in series [22] it was <60%; in series [23] it was 7%; in series [25], 9.3%. In addition, the Activity in series [27] was 90.4%; in [29], 9.3%; in [31], 55%; in [32], 30%; in series [33], “Dose-dependent effect”; in series [35], “Dose-dependent effect”. In addition, the outcome in series [12] and in [24] was Active. Moreover, the inhibition of growth at 1 µM in series [14] worked out at 43%; in series [18], 8%; in series [19] it was 44%. Further, the values for the solubility in series [20] and in series [21] were 4.5 µM (≈ 1.84 µg/mL) and “soluble”, respectively. For the same compound, the inhibition of growth at 5 µM in series [26] is 67%. For the same compound, the IC50 in series [28] came out at 281 nM. Besides, the outcome in series [30] was inactive. Further, in series [34], the “growth inhibition (GI)” value was “inactive”.
